Results taken from US20240130988A1, “Use of stilbene compounds in the preparation of anti-tumor drugs” (Guangzhou AnHao Pharmaceutical Technology CO., LTD., priority 2022, published 2024).
Marks after values point to notes of the source that are not given here.

What was measured:
[1] = system: LLC (mouse lung cancer cells); assay: Enrichment of CD8+ cytotoxic T lymphocytes in tumor tissue, Lewis non-small cell lung cancer model of mice; assay type: in vivo; conditions: 400 mg/kg ip once a day for 10 days, flow cytometry
Protocol: LLC (mouse lung cancer cells) were a mouse Lewis lung cancer cells.
The modeling method for LLC cell lung cancer in mice was as follows:
LLC cells were cultured in the general medium containing 10% fetal bovine serum and 100 μg/mL of double antibody (penicillin±streptomycin), and then cultivated in a 37° C., 5% CO2 cell incubator for routine incubation. LLC cells, that had grown to logarithmic phase, were digested with 0.25% trypsin (containing EDTA) to form a cell suspension, which was centrifuged at 1000 rpm/min for 3 min. The supernatant was discarded, and cell precipitates were collected, that were resuspended in culture medium without serum and double antibody. The cell suspension was further centrifuged to adjust the volume under the same conditions with the aid of cell counting, so as to prepare a cell suspension at a concentration of […] was injected into the right abdomen of each mouse, to complete the inoculation of tumor cells. The tumor was allowed to grew about 10 days, and the volume reached around 100 mm^3, before the mice were treated with test compounds.
Drug preparation: compounds 1-13 of the present invention were respective prepared into an injection with injection water.
Experimental methods: The model mice with LLC cell lung cancer were treated by intraperitoneal administration of 400 mg/kg injection containing the compound of the present invention. The model mice were divided into a negative control group (model mice only receiving equal volume of injection water by intraperitoneal administration) and treatment groups (model mice receiving the injection prepared with the compound of the present invention by intraperitoneal administration). The intraperitoneal injection regimen was carried out by injecting once a day at the pre-determined time. Before administration, the mice were weighed, and then treated with the injection at a dosage of 10 mL/kg, After successive administration for 10 days, that is, on the 10th day after receiving treatment, the mice were sacrificed, and the subcutaneous tumors were stripped to detect the ratio of cytotoxic T lymphocyte antigen CD8^+ in tumor tissues of the negative group and the treatment group by flow cytometry.
CD8^+ tumor-infiltrating lymphocytes in tumor tissues were detected by flow cytometry. The specific steps were as follows:
The mice were sacrificed, and then the abdominal epidermis of the mice was cut open using ophthalmic scissors, to fully expose the subcutaneous tumors. The subcutaneous tumor tissues on the right side of the mouse's abdomen were gradually peeled off with tweezers and ophthalmic scissors. After rinsing with PBS, the stripped tumor tissues were cut into about 1 mm using ophthalmic scissors, and then placed in 3 mL of PBS buffer containing 100 μg/mL of hyaluronidase. A centrifuge tube containing a dispersed liquid was placed in a water bath and kept at 37° C. for 20 min. A pipette was used to blow and shake the digestive tumor tissues every 5 minutes to fully digest. The dispersed liquid containing undigested tumor tissues was filtered through a 70 μm stainless steel cell screen, and the remaining undigested tumor tissues were ground using a push rod of 20 mL syringe on 70 μm cell screen and rinsed 5 times with 1 mL of PBS while grinding. The cell suspension passing the cell screen was transferred to a 15 mL centrifuge tube, and centrifuged at 4000 rpm for 3 min. Then, cell precipitates were collected, to which was added 2 mL of red cell lysis buffer, and rested for 10 min, followed by centrifuging at 4000 rpm for 3 min. After washing with PBS, the cells were resuspended by adding 2-3 mL of PBS.
An appropriate amount of cell suspension was used as the sample for flow cytometry, and after counting, the cell suspension was adjusted to have a concentration of 5×10^6/mL. 100 μL of cell suspension was added to a test tube with a pipettor. […]

[2] = system: nonfusion human umbilical vein endothelial cells (HUVEC); assay: TMT quantitative proteomics on nonfusion HUVEC; assay type: cell-based; conditions: 10 μM; for Differentially expressed proteins: more than 1.5 times or less than 0.67 times vs control; for Down-regulation / Up-regulation: number of proteins
Protocol: Nonfusion human umbilical vein endothelial cells (HUVEC) were used to simulate new tumor blood vessels, while confluent HUVECs were used to simulate normal blood vessels, to construct experimental models. Two different HUVECs were treated with the compound at the same dosage of 10 μM, to simulate the fusion cell state, and proteome samples were prepared. After preparation of peptide segments, the segments were labelled with TMT, and a quantitative proteomics analysis was carried out. The efficiency of TMT labeling was higher than 99.4%, and a total of 28372 peptide segments from 4934 proteins were characterized using a strict 1% FDR limit. Among them, 4909 quantifiable proteins were identified, indicating reliable quality. The nonfusion treatment groups and the fusion treatment groups were compared with their respective control groups, and the control group was used as a reference, with a significant difference of more than 1.5 times or less than 0.67 times as the protein score standard.
The total cell proteins of the samples in nonfusion cell groups and fusion cell groups were extracted separately, and 2 μg of protein samples were subjected to quality analysis, The quantitative proteomics experiments were carried out, and the protein concentration assay was performed by quantitative grayscale measurement.
Data analysis: The human protein database (Scientific name: Homo sapiens, 9606) was downloaded from UniProt, MaxQuant (v 1.5.5.1) search engine was used to search for the database. A total of 4934 proteins (4909 quantitative proteins) and 28372 peptide segments were identified by TMT quantitative proteomics experiments, with a labeling efficiency of more than 99%, and the complete digestion occupied 86.3%.

[3] = system: human liver cancer QGY7703; assay: Human liver cancer QGY7703 transplanted tumor in nude mice; assay type: in vivo, BALB/C nude mice; design: key to RTV (d 18): RTV = Vt/Vo, tumor volume relative to volume at grouping (d1); conditions: QGY7703, 100 mg/kg iv × 14
Protocol: A human liver cancer QGY7703 model transplanted into nude mice was used in the experiment to investigate the anti-tumor effect of test compounds. The mice were intravenously injected at a dosage of 100 mg/kg for 14 days, and the tumor inhibition rate against human liver cancer QGY7703 was measured.
(§1) Preparation: The compound was prepared as the injection at the desired concentration with sterile normal saline, prior to administration.
Animal strain: BALB/C nude mice (SPF grade), weight: 19-21 g, gender: male. Number of animals in each treatment group: 8; number of animals in the control group: >12.
(§2) The tumor blocks of human liver cancer QGY7703 with good growth were cut into uniform small pieces of 3 mm under sterile conditions, and then subcutaneously inoculated into the right armpit of each mouse with a cannula. These mice were divided into 9 groups, 8 mice for each treatment group, while more than 12 mice were included in the control group.
(§3) 14 days after inoculation, the average volume of the tumor block was about 100 mm^3. The animals were regrouped based on the size of the tumor, and the animals with tumors that were too large and too small were sifted out. For each group, the average volume of tumors was basically the same, and then the mice were initially treated with test compounds. The mice in the treatment groups were intravenously injected once a day for 14 days, at a dosage of 0.1 mL/20 g body weight; the mice in the control group were given the same volume of sterile normal saline. From the 14th day of inoculation, the long diameter a (mm) of the tumor, together with the perpendicular short diameter b (mm), was measured using a digital electronic caliper, twice a week. The calculation formula of tumor volume is: TV=ab^2/2, and the formula for calculating the relative tumor volume is RTV=Vt/Vo, wherein Vo denotes the tumor volume measured when the mice were divided into groups (i.e. d1), and Vt is the tumor volume from each measurement.
(§4) The result determination is based on the following formula: […]

[4] = system: human renal cell carcinoma AGHN; assay: Human renal cell carcinoma AGHN transplanted tumor in nude mice; assay type: in vivo, BALB/C nude mice; conditions: 200 mg/kg ip × 14
Protocol: A human renal cell carcinoma AGHN model transplanted into nude mice was used in the experiment to investigate the anti-tumor effect of test compounds. […] AGHN was measured.
as §1
Animal strain: BALB/C, nude mice (SPF grade), weight: 19-21 g, gender: male. Number of animals in each treatment group: 8; number of animals in the control group: >12.
as §2, with “renal cell carcinoma AGHN” for “liver cancer QGY7703”, “The” for “These”, “>12” for “more than 12”
as §3, with “about 100 mm^3, The animals” for “about 100 mm^3. The animals”, “The mice were intraperitoneally” for “The mice in the treatment groups were intravenously”, “mice were intraperitoneally injected once” for “groups were intravenously injected once”, “dosage of 0.2 mL/20 g” for “dosage of 0.1 mL/20 g”, “tumor volume is: RTV=Vt/Vo, wherein” for “tumor volume is RTV=Vt/Vo, wherein”, “and Vt denotes the tumor” for “and Vt is the tumor”
as §4

[5] = system: LLC (mouse lung cancer cells); assay: Enrichment of CD8+ cytotoxic T lymphocytes in tumor tissue, Lewis non-small cell lung cancer model of mice; assay type: in vivo; conditions: 400 mg/kg ip once a day for 10 days, CD8+ immunohistochemistry
human lung cancer A549 = assay: Human lung cancer A549 transplanted tumors in nude mice; assay type: in vivo, BALB/C nude mice; conditions: A549, 400 mg/kg ig × 14
Protocol: In this experiment, a human lung cancer A549 model transplanted into nude mice was selected to study the anti-tumor effect of test compounds. The mice were treated at a dosage of 400 mg/kg by gavage for 14 days, and the tumor inhibition rate against human lung cancer A549 was measured.
Preparation: The compound was prepared as the solution at the desired concentration with distilled water, prior to administration.
Animal strain: BALB/C nude mice (SPF grade), weight: 19-21 g, gender: male. Number of animals in each treatment group: 8; Number of animals in the control group: >12.
Lung cancer A549 tumor blocks with good growth were chosen and cut into uniform small pieces of 3 mm under sterile conditions, and then subcutaneously inoculated into the right armpit of each mouse with a cannula. These mice were divided into 9 groups, 8 mice for each treatment group, while more than 12 mice were included in the control group.
14 days after inoculation, the average volume of the tumor mass was about 100 mm^3. The animals were regrouped based on the size of the tumor, and the mice with tumors that were too large and too small were eliminated. For each group, the average volume of tumors was basically the same, and then the mice were treated with test compounds. The mice in the treatment groups were administered once a day by gavage for 14 successive days, at a dosage of 0.5 mL/20 g body weight; the mice in the control group were given the same volume of physiological saline. From the 14th day of inoculation, the long diameter a (mm) of the tumor, together with the perpendicular short diameter b (mm), was measured using a digital electronic caliper, twice a week. The calculation formula of tumor volume is: TV=ab^2/2, and the formula for calculating the relative tumor volume is RTV=Vt/Vo, wherein Vo denotes the tumor volume measured when the mice were divided into groups (i.e. d1), and Vt is the tumor volume from each measurement.
as §4

[6] = system: human ovarian cancer A2780; assay: Human ovarian cancer A2780 transplanted tumor in nude mice; assay type: in vivo, BALB/C nude mice; conditions: A2780, 200 mg/kg ip × 14
Protocol: A human ovarian cancer A2780 model transplanted into nude mice was used in the experiment to investigate the anti-tumor effect of test compounds.
as §1
Animal strain: BALB/C nude mice (SPF grade), weight: 19-21 g, gender: male.
Number of animals in each treatment group: 8; number of animals in the control group: >12.
as §2, with “ovarian” for “liver”, “A2780 growing well” for “QGY7703 with good growth”, “The” for “These”, “>12” for “more than 12”
as §3, with “mice” for “mice in the treatment groups”, “intraperitoneally” for “intravenously”, “0.2” for “0.1”
as §4

| SMILES | The ratio of CD8^+ in total immune cells of tumor tissues (%) [1] | Differentially expressed proteins [2] | Down-regulation [2] | Up-regulation [2] | inhibition in vivo at 100 mg/kg ([3]; Mus musculus, QGY-7703, read-out: Tumor inhibitory rate %) | RTV (d 18) [3] | RTV (d 18) [4] | Tumor inhibitory rate % [4] | The ratio of distribution area in tumor tissues (%) [5] | RTV (d 22) (human lung cancer A549) | inhibition in vivo at 400 mg/kg (human lung cancer A549; Mus musculus, po, read-out: Tumor inhibitory rate %) | RTV (d 18) [6] | Tumor inhibitory rate % [6] |
| --- | --- | --- | --- | --- | --- | --- | --- | --- | --- | --- | --- | --- | --- |
| COc1ccc(/C=C(/C(=O)O)c2cc(OC)c(OC)c(OC)c2)c(OC)c1O [Compound 12, (E)-3-(3-hydroxy-2,4-dimethoxyphenyl)-2-(3,4,5-trimethoxyphenyl)acrylic acid] | 0.0753 ± 0.0103% | 322 | 314 | 8 | 62.2% | 4.86 ± 0.59 | 5.62 ± 0.59 | 58.48^## % | 5.883 ± 0.6723% |  |  |  |  |
| CCOc1ccc(/C=C(/C(=O)O)c2cc(OC)c(OC)c(OC)c2)cc1O [Compound 13, (E)-3-(4-ethoxy-3-hydroxyphenyl)-2-(3,4,5-trimethoxyphenyl)acrylic acid] | 0.0723 ± 0.0126% | 319 | 312 | 7 |  |  |  |  | 6.547 ± 0.5843% | 3.83 ± 0.64 | 67.4% | 4.78 ± 0.83 | 53.64^## % |
